{"source": "paper PMC8886331", "about": "“Lewis fucose is a key moiety for the recognition of histo‐blood group antigens by GI.9 norovirus, as revealed by structural analysis” (FEBS Open Bio, 2022)", "key": {"[1]": {"biological_target": "T1, GI.9 Vancouver P domain (P dimer) of VP1 (Norovirus Hu/GI/Vancouver730/2004/CAN, UniProt F2XMU3)", "T1 construct": "P (protruding) domain, residues 229-540 of VP1; N11-SUMO fusion from E. coli cell-free system or E. coli KRX, tag cleaved with SUMO protease; homodimer, site formed by both protomers (P-loop from the other protomer)", "assay": "X-ray crystal structure (soak), […] A", "format": "binding", "details": "crystal in 0.1 M bicine pH 9.0, 1.5-1.7 M MgCl2; soaked with 100 mM ligand overnight at 25 °C; HBGA site at P dimer interface"}, "[2]": {"biological_target": "P domain of the VP1 capsid protein of the GI.9 norovirus Vancouver 730 strain (norovirus GI.9, Vancouver 730 strain)", "assay": "SEC; size-exclusion chromatogram of the synthesized P domain proteins; data not shown"}, "[3]": {"biological_target": "T1, GI.9 Vancouver P domain (P dimer) of VP1", "assay": "X-ray crystal structure (soak), […] A", "format": "binding", "details": "crystal in 0.1 M bicine pH 9.0, 1.5-1.7 M MgCl2; soaked with 100 mM ligand overnight at 25 °C; HBGA site at P dimer interface", "remark": "listed apart in the source"}}, "data": [{"compound": "CC(=O)N[C@H]1C(O)O[C@H](CO)[C@@H](O[C@@H]2O[C@@H](C)[C@@H](O)[C@@H](O)[C@@H]2O)[C@@H]1O[C@@H]1O[C@H](CO)[C@H](O)[C@H](O)[C@H]1O[C@@H]1O[C@@H](C)[C@@H](O)[C@@H](O)[C@@H]1O", "note": "(stereo partly drawn) [Lewis b tetrasaccharide]", "values": [{"measurement": "X-ray crystal structure (soak), 2.40 A", "setting": "[1]", "value": "crystal structures of the P domains complexed with each of Lewis b tetrasaccharide and Lewis x"}]}, {"compound": "P domain of the VP1 capsid protein of the GI.9 norovirus Vancouver 730 strain (domain or fragment)", "values": [{"measurement": "stoichiometry N", "setting": "[2]", "value": 2}]}, {"compound": "CC(=O)N[C@H]1C(O)O[C@H](CO)[C@@H](O[C@@H]2O[C@H](CO)[C@H](O)[C@H](O)[C@H]2O)[C@@H]1O[C@@H]1O[C@@H](C)[C@@H](O)[C@@H](O)[C@@H]1O", "note": "(stereo partly drawn) [Lewis x trisaccharide]", "values": [{"measurement": "X-ray crystal structure (soak), 2.26 A", "setting": "[3]", "value": "P domains complexed with each of Lewis b tetrasaccharide and Lewis x trisaccharide"}]}]}
